Legend:
Experiment in all cases: Drug affinity chromatography with c-ponatinib and LC-MS/MS (ponatinib interactome)
Type in all cases: binding
[1] = target: T1, proteins of U2OS cell lysate (Homo sapiens, UniProt O00231); conditions: PSMD11, 26S proteasome non-ATPase regulatory subunit 11
T1 construct: Proteins enriched by c-ponatinib from U2OS cell lysate; endogenous in cells; host or cells: U2OS cell lysate
Outline: (§1)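 Proteins were identified by nano-UPLC–MS/MS after elution with formic acid and trypsin digestion. They were captured from U2OS lysate (2 mg protein per pulldown, NP-40 buffer) on amine-coupled NHS beads during a 2 h incubation at 4 °C.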

[2] = target: T2, proteins of U2OS cell lysate (Homo sapiens, UniProt O00487); conditions: PSMD14, 26S proteasome non-ATPase regulatory subunit 14
T2 construct: Proteins enriched by c-ponatinib from U2OS cell lysate; endogenous in cells; host or cells: U2OS cell lysate
Outline: as §1

[3] = target: T3, proteins of U2OS cell lysate (Homo sapiens, UniProt P05141); conditions: SLC25A5;SLC25A6;SLC25A4, ADP/ATP translocase 2
T3 construct: Proteins enriched by c-ponatinib from U2OS cell lysate; endogenous in cells; host or cells: U2OS cell lysate
Outline: as §1

[4] = target: T4, proteins of U2OS cell lysate (Homo sapiens, UniProt P17844); conditions: DDX5, Probable ATP-dependent RNA helicase DDX5
T4 construct: Proteins enriched by c-ponatinib from U2OS cell lysate; endogenous in cells; host or cells: U2OS cell lysate
Outline: as §1

[5] = target: T5, proteins of U2OS cell lysate (Homo sapiens, UniProt P23246); conditions: SFPQ, Splicing factor, proline- and glutamine-rich
T5 construct: Proteins enriched by c-ponatinib from U2OS cell lysate; endogenous in cells; host or cells: U2OS cell lysate
Outline: as §1

[6] = target: T6, proteins of U2OS cell lysate (Homo sapiens, UniProt P27707); conditions: DCK, Deoxycytidine kinase
T6 construct: Proteins enriched by c-ponatinib from U2OS cell lysate; endogenous in cells; host or cells: U2OS cell lysate
Outline: as §1

[7] = target: T7, proteins of U2OS cell lysate (Homo sapiens, UniProt P27816); conditions: MAP4, Microtubule-associated protein 4
T7 construct: Proteins enriched by c-ponatinib from U2OS cell lysate; endogenous in cells; host or cells: U2OS cell lysate
Outline: as §1

[8] = target: T8, proteins of U2OS cell lysate (Homo sapiens, UniProt P48047); conditions: ATP5O, ATP synthase subunit O, mitochondrial
T8 construct: Proteins enriched by c-ponatinib from U2OS cell lysate; endogenous in cells; host or cells: U2OS cell lysate
Outline: as §1

[9] = target: T9, proteins of U2OS cell lysate (Homo sapiens, UniProt Q00325); conditions: SLC25A3, Phosphate carrier protein, mitochondrial
T9 construct: Proteins enriched by c-ponatinib from U2OS cell lysate; endogenous in cells; host or cells: U2OS cell lysate
Outline: as §1

[10] = target: T10, proteins of U2OS cell lysate (Homo sapiens, UniProt Q02218); conditions: OGDH;OGDHL, 2-oxoglutarate dehydrogenase, mitochondrial
T10 construct: Proteins enriched by c-ponatinib from U2OS cell lysate; endogenous in cells; host or cells: U2OS cell lysate
Outline: as §1

[11] = target: T11, proteins of U2OS cell lysate (Homo sapiens, UniProt Q13163); conditions: MAP2K5, Dual specificity mitogen-activated protein kinase kinase 5
T11 construct: Proteins enriched by c-ponatinib from U2OS cell lysate; endogenous in cells; host or cells: U2OS cell lysate
Outline: as §1

[12] = target: T12, proteins of U2OS cell lysate (Homo sapiens, UniProt Q14315); conditions: FLNC, Filamin-C
T12 construct: Proteins enriched by c-ponatinib from U2OS cell lysate; endogenous in cells; host or cells: U2OS cell lysate
Outline: as §1

[13] = target: T13, proteins of U2OS cell lysate (Homo sapiens, UniProt Q16181); conditions: SEPT7;DKFZp586I031, Septin-7
T13 construct: Proteins enriched by c-ponatinib from U2OS cell lysate; endogenous in cells; host or cells: U2OS cell lysate
Outline: as §1

[14] = target: T14, proteins of U2OS cell lysate (Homo sapiens, UniProt Q99623); conditions: PHB2, Prohibitin-2
T14 construct: Proteins enriched by c-ponatinib from U2OS cell lysate; endogenous in cells; host or cells: U2OS cell lysate
Outline: as §1

[15] = target: T15, proteins of U2OS cell lysate (Homo sapiens, UniProt Q9P2E9); conditions: RRBP1, Ribosome-binding protein 1
T15 construct: Proteins enriched by c-ponatinib from U2OS cell lysate; endogenous in cells; host or cells: U2OS cell lysate
Outline: as §1

[16] = target: T16, proteins of U2OS cell lysate (Homo sapiens, UniProt Q9Y2V7); conditions: COG6, Conserved oligomeric Golgi complex subunit 6
T16 construct: Proteins enriched by c-ponatinib from U2OS cell lysate; endogenous in cells; host or cells: U2OS cell lysate
Outline: as §1

[17] = target: T17, proteins of U2OS cell lysate (Homo sapiens, UniProt Q9Y512); conditions: SAMM50, Sorting and assembly machinery component 50 homolog
T17 construct: Proteins enriched by c-ponatinib from U2OS cell lysate; endogenous in cells; host or cells: U2OS cell lysate
Outline: as §1

[18] = target: T18, proteins of U2OS cell lysate (Homo sapiens, UniProt Q00839); conditions: captured protein HNRNPU, Rank 192
T18 construct: Proteins enriched by c-ponatinib from U2OS cell lysate; endogenous in cells; host or cells: U2OS cell lysate
Outline: as §1

[19] = target: T19, proteins of U2OS cell lysate (Homo sapiens, UniProt Q9HAV4); conditions: captured protein XPO5, Rank 207
T19 construct: Proteins enriched by c-ponatinib from U2OS cell lysate; endogenous in cells; host or cells: U2OS cell lysate
Outline: as §1

T13 sequence (Q16181 whole entry): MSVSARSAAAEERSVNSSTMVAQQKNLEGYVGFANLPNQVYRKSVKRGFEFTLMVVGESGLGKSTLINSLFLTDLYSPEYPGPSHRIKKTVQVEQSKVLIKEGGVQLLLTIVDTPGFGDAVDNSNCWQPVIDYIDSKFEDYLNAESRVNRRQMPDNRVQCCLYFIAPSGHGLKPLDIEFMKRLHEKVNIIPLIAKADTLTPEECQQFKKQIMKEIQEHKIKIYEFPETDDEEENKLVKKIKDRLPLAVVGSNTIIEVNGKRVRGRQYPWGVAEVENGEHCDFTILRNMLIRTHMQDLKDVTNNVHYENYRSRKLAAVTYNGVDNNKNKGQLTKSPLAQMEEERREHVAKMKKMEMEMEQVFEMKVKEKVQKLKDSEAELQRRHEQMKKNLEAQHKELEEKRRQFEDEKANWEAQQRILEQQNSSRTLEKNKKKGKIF
T19 sequence (Q9HAV4 whole entry): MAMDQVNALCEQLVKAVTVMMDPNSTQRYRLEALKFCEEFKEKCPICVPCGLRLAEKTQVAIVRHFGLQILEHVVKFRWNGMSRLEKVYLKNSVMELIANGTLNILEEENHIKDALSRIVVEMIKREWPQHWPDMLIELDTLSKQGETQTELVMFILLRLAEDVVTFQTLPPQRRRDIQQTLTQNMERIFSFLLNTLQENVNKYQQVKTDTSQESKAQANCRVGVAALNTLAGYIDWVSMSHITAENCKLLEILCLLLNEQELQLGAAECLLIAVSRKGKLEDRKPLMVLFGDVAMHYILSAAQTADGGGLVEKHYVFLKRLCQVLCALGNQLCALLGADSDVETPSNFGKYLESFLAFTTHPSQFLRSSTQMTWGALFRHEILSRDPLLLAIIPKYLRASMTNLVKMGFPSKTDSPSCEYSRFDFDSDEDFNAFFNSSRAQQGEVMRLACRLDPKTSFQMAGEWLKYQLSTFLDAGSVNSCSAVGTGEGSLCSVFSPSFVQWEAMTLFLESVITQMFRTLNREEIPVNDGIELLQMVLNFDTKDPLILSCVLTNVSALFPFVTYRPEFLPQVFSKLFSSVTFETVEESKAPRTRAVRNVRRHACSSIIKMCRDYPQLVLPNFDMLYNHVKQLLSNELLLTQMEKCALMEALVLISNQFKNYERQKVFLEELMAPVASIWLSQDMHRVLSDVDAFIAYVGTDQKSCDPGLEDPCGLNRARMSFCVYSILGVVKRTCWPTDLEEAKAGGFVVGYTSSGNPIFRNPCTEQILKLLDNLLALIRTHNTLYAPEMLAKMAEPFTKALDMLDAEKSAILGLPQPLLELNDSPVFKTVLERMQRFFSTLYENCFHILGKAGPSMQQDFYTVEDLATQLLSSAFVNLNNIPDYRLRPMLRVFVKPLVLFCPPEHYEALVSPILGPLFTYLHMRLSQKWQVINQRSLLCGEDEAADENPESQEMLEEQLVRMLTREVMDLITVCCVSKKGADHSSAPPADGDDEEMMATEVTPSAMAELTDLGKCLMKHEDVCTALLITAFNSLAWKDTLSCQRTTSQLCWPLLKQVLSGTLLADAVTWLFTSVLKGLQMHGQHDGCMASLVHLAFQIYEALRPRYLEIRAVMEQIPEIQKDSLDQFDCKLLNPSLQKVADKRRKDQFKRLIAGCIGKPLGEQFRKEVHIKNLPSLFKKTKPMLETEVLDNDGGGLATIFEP
T1 sequence (O00231 whole entry): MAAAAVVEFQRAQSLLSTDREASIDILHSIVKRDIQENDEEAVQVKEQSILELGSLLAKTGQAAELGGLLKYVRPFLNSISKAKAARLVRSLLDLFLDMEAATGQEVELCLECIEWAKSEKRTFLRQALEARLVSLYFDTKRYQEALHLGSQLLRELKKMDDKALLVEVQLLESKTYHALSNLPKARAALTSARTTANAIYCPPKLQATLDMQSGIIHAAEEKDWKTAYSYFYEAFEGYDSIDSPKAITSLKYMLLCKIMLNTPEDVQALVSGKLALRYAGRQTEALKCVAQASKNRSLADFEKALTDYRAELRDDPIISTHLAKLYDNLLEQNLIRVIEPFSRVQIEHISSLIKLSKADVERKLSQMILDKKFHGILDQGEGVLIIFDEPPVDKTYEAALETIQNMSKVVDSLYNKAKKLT
T16 sequence (Q9Y2V7 whole entry): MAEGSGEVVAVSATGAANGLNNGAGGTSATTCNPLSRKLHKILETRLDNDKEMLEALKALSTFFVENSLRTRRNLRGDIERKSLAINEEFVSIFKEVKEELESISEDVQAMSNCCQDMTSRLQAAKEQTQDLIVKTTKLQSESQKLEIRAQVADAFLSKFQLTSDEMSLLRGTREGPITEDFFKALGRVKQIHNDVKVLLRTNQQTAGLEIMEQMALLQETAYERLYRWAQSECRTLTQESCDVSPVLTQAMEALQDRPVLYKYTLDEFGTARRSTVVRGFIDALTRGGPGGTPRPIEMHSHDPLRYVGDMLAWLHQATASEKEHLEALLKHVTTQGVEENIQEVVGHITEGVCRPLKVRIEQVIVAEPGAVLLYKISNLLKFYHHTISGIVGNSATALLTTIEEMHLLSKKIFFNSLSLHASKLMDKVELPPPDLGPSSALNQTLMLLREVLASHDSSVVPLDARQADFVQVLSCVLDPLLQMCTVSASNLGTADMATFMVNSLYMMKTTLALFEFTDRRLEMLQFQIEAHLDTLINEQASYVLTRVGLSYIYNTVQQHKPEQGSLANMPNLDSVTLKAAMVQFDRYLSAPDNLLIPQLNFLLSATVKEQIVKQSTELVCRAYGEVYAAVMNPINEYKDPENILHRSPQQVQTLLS
T10 sequence (Q02218 41-1023): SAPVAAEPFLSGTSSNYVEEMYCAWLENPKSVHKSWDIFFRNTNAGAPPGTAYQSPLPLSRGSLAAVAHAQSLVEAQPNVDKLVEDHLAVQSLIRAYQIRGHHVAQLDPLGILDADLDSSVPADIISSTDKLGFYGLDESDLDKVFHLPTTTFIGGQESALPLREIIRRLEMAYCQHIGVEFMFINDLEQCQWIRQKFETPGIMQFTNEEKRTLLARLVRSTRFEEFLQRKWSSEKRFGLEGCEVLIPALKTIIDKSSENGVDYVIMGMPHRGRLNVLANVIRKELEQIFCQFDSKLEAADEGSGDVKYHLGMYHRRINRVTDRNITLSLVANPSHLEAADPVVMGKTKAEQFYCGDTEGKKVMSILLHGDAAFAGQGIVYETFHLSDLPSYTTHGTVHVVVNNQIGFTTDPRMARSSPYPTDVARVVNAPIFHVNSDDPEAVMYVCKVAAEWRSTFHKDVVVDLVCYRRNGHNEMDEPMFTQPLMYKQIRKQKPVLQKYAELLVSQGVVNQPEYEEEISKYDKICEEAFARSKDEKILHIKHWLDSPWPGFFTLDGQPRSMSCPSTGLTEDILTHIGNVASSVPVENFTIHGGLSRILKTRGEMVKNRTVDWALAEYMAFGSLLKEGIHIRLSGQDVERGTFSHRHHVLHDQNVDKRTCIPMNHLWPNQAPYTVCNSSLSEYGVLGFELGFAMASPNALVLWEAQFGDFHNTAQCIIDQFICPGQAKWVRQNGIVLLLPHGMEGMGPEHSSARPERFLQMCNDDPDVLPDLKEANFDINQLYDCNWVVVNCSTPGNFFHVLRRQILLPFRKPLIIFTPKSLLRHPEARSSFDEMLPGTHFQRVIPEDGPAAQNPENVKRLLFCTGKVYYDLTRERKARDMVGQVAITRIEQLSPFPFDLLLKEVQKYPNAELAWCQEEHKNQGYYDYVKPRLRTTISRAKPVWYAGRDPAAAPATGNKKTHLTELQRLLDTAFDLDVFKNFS
T6 sequence (P27707 whole entry): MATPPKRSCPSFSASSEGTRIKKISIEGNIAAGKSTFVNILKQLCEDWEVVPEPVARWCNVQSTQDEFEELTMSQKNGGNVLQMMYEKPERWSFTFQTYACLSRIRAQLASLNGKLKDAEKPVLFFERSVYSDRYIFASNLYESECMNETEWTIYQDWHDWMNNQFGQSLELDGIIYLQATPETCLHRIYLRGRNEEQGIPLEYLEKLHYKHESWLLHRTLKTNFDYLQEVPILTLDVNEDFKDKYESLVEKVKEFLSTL
T14 sequence (Q99623 whole entry): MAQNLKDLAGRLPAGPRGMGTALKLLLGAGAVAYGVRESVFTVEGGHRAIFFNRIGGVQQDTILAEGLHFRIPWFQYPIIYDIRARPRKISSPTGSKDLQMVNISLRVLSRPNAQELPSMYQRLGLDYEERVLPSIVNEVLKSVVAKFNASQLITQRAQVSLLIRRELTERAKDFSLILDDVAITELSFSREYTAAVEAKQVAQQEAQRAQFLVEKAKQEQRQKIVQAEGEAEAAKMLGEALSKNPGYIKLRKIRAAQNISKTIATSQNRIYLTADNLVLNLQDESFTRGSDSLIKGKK
T8 sequence (P48047 24-213): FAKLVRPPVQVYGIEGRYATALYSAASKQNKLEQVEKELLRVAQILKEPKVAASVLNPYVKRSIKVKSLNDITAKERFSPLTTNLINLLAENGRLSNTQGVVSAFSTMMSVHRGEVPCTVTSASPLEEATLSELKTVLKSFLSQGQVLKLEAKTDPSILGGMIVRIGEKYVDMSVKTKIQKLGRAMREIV
T2 sequence (O00487 whole entry): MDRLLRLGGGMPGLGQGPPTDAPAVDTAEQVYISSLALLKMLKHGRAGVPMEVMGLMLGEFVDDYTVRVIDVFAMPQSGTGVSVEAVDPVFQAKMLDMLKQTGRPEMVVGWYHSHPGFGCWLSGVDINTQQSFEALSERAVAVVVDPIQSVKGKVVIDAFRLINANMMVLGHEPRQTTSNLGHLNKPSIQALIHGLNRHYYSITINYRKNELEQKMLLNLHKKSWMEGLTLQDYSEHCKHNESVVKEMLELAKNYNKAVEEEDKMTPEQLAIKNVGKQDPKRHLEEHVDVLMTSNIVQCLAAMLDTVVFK

SMILES | Average LFQ PON_WT [1] | Average LFQ PON_WT [2] | Average LFQ PON_WT [3] | Average LFQ PON_WT [4] | Average LFQ PON_WT [5] | Average LFQ PON_WT [6] | Average LFQ PON_WT [7] | Average LFQ PON_WT [8] | Average LFQ PON_WT [9] | Average LFQ PON_WT [10] | Average LFQ PON_WT [11] | Average LFQ PON_WT [12] | Average LFQ PON_WT [13] | Average LFQ PON_WT [14] | Average LFQ PON_WT [15] | Average LFQ PON_WT [16] | Average LFQ PON_WT [17] | Average LFQ intensity [18] | Average LFQ intensity [19]
Cc1ccc(C(=O)Nc2ccc(CN3CCN(C)CC3)c(C(F)(F)F)c2)cc1C#Cc1cnc2cccnn12 [PON] | 21.0044 | 20.7842 | 25.3771 | 21.2715 | 20.8702 | 29.7769 | 23.7532 | 24.0207 | 23.3948 | 22.0277 | 19.6379 | 26.6007 | 23.204 | 28.7804 | 20.1458 | 20.9766 | 20.9007 |  | 
Cc1ccc(C(=O)Nc2ccc(CN3CCN(CCCN)CC3)c(C(F)(F)F)c2)cc1C#Cc1cnc2cccnn12 [c-ponatinib, reference compound] |  |  |  |  |  |  |  |  |  |  |  |  |  |  |  |  |  | 21.9786 | 21.7615

From paper PMC6120666 (The EMBO Journal, 2018)
